This assay concerns B16BL6 cells. The assay can be described thus: B16BL6 tumor model (Example 8). The assay is classed as in vivo, mouse. The conditions noted are these: p.l. days 7-15, FIGS. 14A-B. The procedure: Mice were maintained in pathogen-free conditions in a temperature-controlled environment with 12/12 hour light/dark cycles and received food and water ad libitum. Female C57BL/6J mice (Charles River Laboratories, Saint-Germain sur l'Arbresle, France) were inoculated with B16BL6 or MC38 or Panc02 cells, at the age of 8 weeks, using a 30G insulin syringe, in 50 μl suspension, on the shaved flank of briefly sedated mice (using 4% isoflurane). B16BL6 cells are a murine melanoma cell line that are typically used as a model for human skin cancers with increased resistance to doxorubicin. MC38 cells are derived from a murine colon adenocarcinoma and are typically used as a model for human colon cancers. Panc02 cells are derived from a murine pancreatic ductal adenocarcinoma and are typically used as a model for human pancreatic cancers.
All tumor treatments were done perilesionally (p.l.), which is s.c. at the tumor border, starting at day 7 after tumor inoculation. Mice received FAP-AFN or FAP-WTmIFN treatments on days 7, 8, 9, 10, 12, 13, 14 and 15. Control mice were treated with PBS on the same days. FAP-AFN or FAP-VVTmIFN were given about […] (1.8 mg/kg). […]

This passage reports tumor growth results from US12576127B2, “Fibroblast binding agents and use thereof” (Orionis Biosciences, Inc., priority 2018, dated 2026).

As to `COc1cccc2c1C(=O)c1c(O)c3c(c(O)c1C2=O)C[C@@](O)(C(=O)CO)C[C@@H]3O[C@H]1C[C@H](N)[C@H](O)[C@H](C)O1` [doxorubicin], the tumor growth entry is reported as “tumor stasis at best, but no tumor regression”.
